From patent EP1464336A1, “Use of tryprostatin A for the reversal of cancer drug resistance” (Humboldt-Universität zu Berlin, priority 2003, dated 2004)
Entries after “also recorded” stand apart in the source; their conditions may differ.

Columns and labels:
[1] = tested on: control cells (EPG85-257P); assay: Annexin assay: FITC-Annexin V binding, exposure of endogenous PS (flow cytometry); type: cell-based, human; conditions: treatment with Tryprostatin A (data not shown)
Protocol: (§1) To measure exposure of endogenous PS on the cell surface, cells were incubated on ice for 10 minutes in the dark with 9 nM FITC-Annexin V in binding buffer. Two minutes prior to the end of the incubation, propidium iodide (final 1.9 µM) was added. Cells were then washed three times, detached from the dishes through pipetting, and suspended in binding buffer. Measurement was performed with a FACSCalibur flow cytometer (Becton Dickinson, St. Louis, MO) 5 minutes after the end of incubation. Regions were set to exclude subcellular particles, and only single cells were counted (10 000 cells / sample). A further gate excluded damaged cells with elevated propidium iodide staining. Data were analyzed by Becton Dickinson CellQuest software.

[2] = tested on: BCRP overexpressing cells (EPG85-257RNOV); assay: as above; type: cell-based, human; conditions: preincubation with 5 µM Tryprostatin A for 30 min at 37°C (Fig. 9, 10)
Protocol: as §1

[3] = tested on: MDR1 Pgp overexpressing subline (EPG85-257RDB); assay: C6-NBD-PS outward translocation assay; type: cell-based, human; conditions: 10 µM inhibitor; 30 minutes at 37°C (Fig. 8)
Protocol: (§2) To measure redistribution of C6-NBD-PS from the cytoplasmic to the exoplasmic leaflet, labelling of the cytoplasmic leaflet is preconditional. Previously, we have introduced a method to achieve efficient labeling of the plasma membrane inner leaflet of the gastric carcinoma cell line EPG85-257 (Pohl, A., Lage, H., Müller, P., Pomorksi, T., and Herrmann. A. (2002) Biochem. J. 365, 259-268). Briefly, cells were preincubated with or without MDR inhibitors, labelled with 5 µM C6-NBD-PS, and incubated at 20°C for 30 minutes to allow inward movement of the NBD analogue. C6-NBD-PS remaining on the cell surface was extracted twice by incubation with 2% (w/v) BSA in mPBS for 10 minutes on ice. Before starting the outward translocation assay, the medium was removed, and cells were washed with ice-cold mPBS. For t=0', ice-cold medium containing 2% (w/v) BSA and 5 mM DFP ( = diisopropyl fluoro-phosphate) in mPBS with or without inhibitor was immediately added to the cell dish for 10 minutes. To measure C6-NBD-PS outward translocation, medium prewarmed to 37°C was added to the dish, and cells were incubated at 37°C for 30 minutes (t = 30'). Removal of the BSA-containing media and a second extraction with 2% BSA in mPBS for 10 minutes terminated incubations, followed by lipid analysis.
(§3) After the incubations, the second BSA back exchange medium was pooled with the first, and cells scraped into mPBS. For analysis of outward translocation and of metabolic conversion of C6-NBD-PS, lipids from both scraped cells and media were extracted with isopropanol/chloroform/(5.5:1, v/v) to prevent substantial loss into the aqueous phase. Samples were centrifuged at 780 g for 5 minutes, the supernatant transferred into new glass tubes and dried, dissolved in chloroform/methanol (1:1) and quantified spectroscopically. For C6-NBD-PC analysis, lipids from both cells and incubation media were extracted by the method of Bligh and Dyer (Bligh, E., and Dyer, W. (1959) Can. J Biochem. Physiol. 37, 911-917) using 20 mM acetic acid in the aqueous phase. After 2-D separation [I, chloroform/methanol/25% ammonium hydroxide (65:25:4, v/v); II, chloroform/acetone/methanol/acetic acid/water (10:4:2:2:1, v/v)] on thin layer chromatography plates, fluorescent lipid spots were visualized under ultraviolet light, scraped, and quantified as described before (Pomorski, T., Müller, P., Zimmermann, B., Burger, K., Devaux, P., and Herrmann, A. (1996) J. Cell Sci. 109, 687-698).

[4] = tested on: control cells (EPG85-257P); assay: C6-NBD-PS outward translocation assay; type: cell-based, human; conditions: 10 µM inhibitor; 30 minutes at 37°C (Fig. 8)
Protocol: as §2, §3

[5] = tested on: BCRP overexpressing cells (EPG85-257RNOV); assay: C6-NBD-PS outward translocation assay; type: cell-based, human; conditions: pretreatment with 10 µM inhibitor; 30 minutes at 37°C (Fig. 8)
Protocol: as §2, §3

[6] = tested on: gastric and breast carcinoma cell variants; assay: Modulation of chemoresistance to mitoxantrone or daunorubicin (SRB proliferation assay, IC50/DMF); type: cell-based, human
Protocol: (§4) Modulation of chemoresistance was tested using a proliferation assay based on sulforhodamine B (SRB), a protein-binding reagent (Skehan P et al., J Natl Cancer Inst 1990;82:1107-12), as described in Lage H et al., Int J Hyperthermia 2000;16:291-303; Lage H et al., FEBS Lett 2001;503:179-84; Lage H et al., FEBS Lett 2001;494:54-9. In each experiment, 350 cells per well were seeded in the presence or absence of TPS-A in 96-well plates in complete medium and allowed to attach overnight. Mitoxantrone or daunorubicin were added in a dilution series in triplicate wells. After 5 days, when unselected wells were still subconfluent, incubation was terminated by replacing the medium with 10 % trichloroacetic acid, followed by incubation at 4 °C for 1 h. After samples were washed 5 times with water and air-dried, 50 µl 0.4 % SRB (Sigma, St. Louis, MO) in 1 % acetic acid was added and samples were incubated for 10 min at room temperature. Unbound dye was eliminated by washing the plates 5 times with 1 % acetic acid. After air-drying and re-solubilisation of the protein-bound dye in 10 mM Tris-HCl (pH 8.0), absorbance was quantified at 562.5 nm. To determine the IC50-value, the absorbance difference of control cells without drug was set to be 100 %. Linear regression of data was done for the linear part of the curve, and IC50-values were calculated from multiple, at least three independent experiments for each cell line.
The cellular sensitivity to mitoxantrone and daunorubicin was assessed by determining the IC50 values without or with increasing concentrations of TPS-A or GF120918 as a positive control in the different cancer cell variants. Table 1 presents the data of TPS-A reversal of mitoxantrone and daunorubicin resistance in different gastric and breast carcinoma cell variants, respectively. […] In each case, the equation DMF=(IC50 (-CS))/(IC50 (+CS)) [formula] was used to calculate the dose modifying factor (DMF), comparing the IC50 values in the presence (+CS) or absence (-CS) of the corresponding chemosensitizer (CS) TPS-A or GF120918.

[7] = tested on: microtubule-associated protein (MAP)-dependent microtubule assembly; conditions: literature (Usui T et al., Biochem J 1998); cited from earlier work
[8] = tested on: MCF-7 breast cancer-derived cell variants; assay: Cytotoxicity of the MDR modulator alone (SRB proliferation assay); type: cell-based, human
Protocol: as §4, with “Unbound dye was eliminated by washing the plates 5 times with 1 % acetic acid.” left out, “To determine the IC50-value, the absorbance difference of control cells without drug was set to be 100 %.” left out
The cytotoxicity of the MDR modulators TPS-A and GF120918 on drug-sensitive and drug-resistant gastric and breast cancer cell lines was initially assessed.

[9] = tested on: cell cycle progression at the G2/M phase; conditions: literature (Cui CB et al.; Usui T et al.); cited from earlier work

COc1ccc2c(C[C@@H]3NC(=O)[C@@H]4CCCN4C3=O)c(CC=C(C)C)[nH]c2c1 [TPS-A, tryprostatin A]
Annexin V binding [1]: not affected
level of Annexin V binding [2]: reduced the level of Annexin V binding to that of control cells; also recorded: reduced to the level found for control cells
PS analogue outward translocation (MDR1 Pgp lipid transport activity) [3]: did not affect
PS transport (C6-NBD-PS outward translocation) [4]: did not affect PS transport significantly
amount of C6-NBD-PS in the BSA containing medium (outward translocation) [5]: sharp and highly significant decrease
sensitization to treatment with mitoxantrone ([6]; TPS-A, BCRP-expressing gastric and breast cancer cells (Table 1, Figure 2A)): dose-depending sensitization
effect on sensitivity to daunorubicin ([6]; increasing concentrations of TPS-A, drug-sensitive, P-gp- or BCRP-expressing carcinoma cells (Table 1, Figure 2B)): No significant effect
final concentration inhibiting MAP-dependent microtubule assembly / cell cycle progression at the M phase [7]: 250 µM
effect on the cell proliferation ([8]; 50 µM TPS-A alone in the cell culture medium): without any effect on the cell proliferation; also recorded: did not show any cytotoxic or growth-inhibiting effects
concentration necessary to obtain a level of drug sensitivity beyond that found for 1 µM GF120918 ([8]; MCF-7-derived breast cancer model system): 50 µM
final concentration arresting cell cycle progression at the G2/M phase [9]: 125 µM
